Like-named read-outs stand apart in the source and are kept apart here.
Biological target: T1, F508delCFTR (Homo sapiens, UniProt P13569, DEL508-508)
T1 construct: expressed in transfected cells; host or cells: CFBE41o- human lung-derived epithelial cells (CFBE4lo-F508delCFTR-HRP), doxycycline-inducible
Assay: Cell Surface Expression-Horse Radish Peroxidase (CSE-HRP) Assay;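 for Maximum % activity (with co-corrector): co-corrector and positive control are both the same reference corrector at 2 µM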;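 for Maximum % activity (without co-corrector): percent of the 2 µM on-plate positive control corrector response above DMSO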
Type: cell-based
Conditions: for Maximum % activity (with co-corrector) / Emax: maximum at any tested concentration, normalized to on-plate positive control; for Emax: read-out: Maximum % activity (without co-corrector)

[1] = test compound without co-corrector, read-out: EC50 (without co-corrector)
[2] = with co-corrector (2 μM of 3-[(2R,4R)-4-({[1-(2,2-difluoro-1,3-benzodioxol-5-yl)cyclopropyl]carbonyl}amino)-7-methoxy-3,4-dihydro-2H-chromen-2-yl]benzoic acid), read-out: EC50 (with co-corrector)
[3] = test compound without co-corrector
[4] = with co-corrector (2 μM of 3-[(2R,4R)-4-({[1-(2,2-difluoro-1,3-benzodioxol-5-yl)cyclopropyl]carbonyl}amino)-7-methoxy-3,4-dihydro-2H-chromen-2-yl]benzoic acid)
[5] = CSE-HRP, test compound without co-corrector, read-out: EC50 (without co-corrector)
[6] = CSE-HRP, with co-corrector (2 μM of 3-[(2R,4R)-4-({[1-(2,2-difluoro-1,3-benzodioxol-5-yl)cyclopropyl]carbonyl}amino)-7-methoxy-3,4-dihydro-2H-chromen-2-yl]benzoic acid), read-out: EC50 (with co-corrector)
[7] = CSE-HRP, with co-corrector (2 μM)

T1 sequence (P13569 with tags, fused parts or gaps DEL508-508): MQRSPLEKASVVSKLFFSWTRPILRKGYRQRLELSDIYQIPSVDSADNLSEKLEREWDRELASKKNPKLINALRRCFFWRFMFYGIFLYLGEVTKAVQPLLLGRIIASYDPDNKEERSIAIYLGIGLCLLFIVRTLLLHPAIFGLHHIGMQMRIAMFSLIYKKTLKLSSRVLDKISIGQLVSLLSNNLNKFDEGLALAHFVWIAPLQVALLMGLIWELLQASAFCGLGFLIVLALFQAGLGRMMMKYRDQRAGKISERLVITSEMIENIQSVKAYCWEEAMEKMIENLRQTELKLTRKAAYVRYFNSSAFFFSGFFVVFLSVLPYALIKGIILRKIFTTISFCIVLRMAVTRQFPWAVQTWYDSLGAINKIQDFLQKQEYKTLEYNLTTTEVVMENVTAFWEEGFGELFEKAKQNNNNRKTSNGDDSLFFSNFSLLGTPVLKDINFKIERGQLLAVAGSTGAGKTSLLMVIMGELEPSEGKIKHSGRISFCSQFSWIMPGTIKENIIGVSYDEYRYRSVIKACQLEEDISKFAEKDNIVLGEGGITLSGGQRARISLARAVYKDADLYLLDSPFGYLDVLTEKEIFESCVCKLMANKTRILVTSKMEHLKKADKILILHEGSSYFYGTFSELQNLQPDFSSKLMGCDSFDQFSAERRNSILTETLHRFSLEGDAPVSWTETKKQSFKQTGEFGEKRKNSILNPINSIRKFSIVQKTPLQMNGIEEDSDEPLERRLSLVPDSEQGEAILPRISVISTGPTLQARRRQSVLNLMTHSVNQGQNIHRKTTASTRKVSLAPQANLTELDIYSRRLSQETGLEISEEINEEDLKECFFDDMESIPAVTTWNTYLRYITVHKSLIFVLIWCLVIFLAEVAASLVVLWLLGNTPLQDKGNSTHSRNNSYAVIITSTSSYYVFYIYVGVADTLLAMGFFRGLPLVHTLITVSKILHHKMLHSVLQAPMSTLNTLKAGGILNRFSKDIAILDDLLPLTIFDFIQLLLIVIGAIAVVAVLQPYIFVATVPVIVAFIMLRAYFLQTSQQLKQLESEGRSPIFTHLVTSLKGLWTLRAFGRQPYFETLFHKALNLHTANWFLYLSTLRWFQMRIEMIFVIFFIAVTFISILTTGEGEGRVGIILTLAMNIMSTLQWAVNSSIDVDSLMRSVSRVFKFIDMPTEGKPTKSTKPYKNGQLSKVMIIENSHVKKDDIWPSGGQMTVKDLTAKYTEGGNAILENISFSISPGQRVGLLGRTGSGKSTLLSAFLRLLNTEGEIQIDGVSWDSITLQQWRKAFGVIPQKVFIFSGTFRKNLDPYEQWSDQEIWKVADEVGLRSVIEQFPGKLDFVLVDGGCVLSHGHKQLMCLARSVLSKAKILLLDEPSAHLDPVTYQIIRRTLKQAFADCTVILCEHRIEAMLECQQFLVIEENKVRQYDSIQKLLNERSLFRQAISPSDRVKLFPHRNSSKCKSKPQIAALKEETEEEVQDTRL

| EC50 [1] [nM] | EC50 [2] [nM] | Maximum % activity (with co-corrector) (with co-corrector (2 μM)) | Emax (without co-corrector) [%] | Emax [3] [%] | Maximum % activity (with co-corrector) [4] | EC50 [5] [nM] | EC50 [6] [nM] | Maximum % activity (with co-corrector) [7] | Emax (CSE-HRP, without co-corrector) [%] | Compound |
| --- | --- | --- | --- | --- | --- | --- | --- | --- | --- | --- |
| 1000 to 10000 | < 1000 | +++ (≥350) | > 200 | – | – | – | – | – | – | COc1ncc(C(F)(F)F)cc1CN[C@H]1[C@H](C(C)(C)C)[C@@H](C(=O)O)N(C(=O)[C@H]2CCCCO2)[C@H]1c1ccccc1C(C)C [Example 85, (2S,3S,4S,5S)-3-tert-butyl-4-({[2-methoxy-5-(trifluoromethyl)pyridin-3-yl]methyl}amino)-1-[(2R)-oxane-2-carbonyl]-5-[2-(propan-2-yl)phenyl]pyrrolidine-2-carboxylic acid] |
| > 10000 | 1000 to 10000 | + (<150) | < 100 | – | – | – | – | – | – | COc1ccc(C(C)(C)C)cc1CN[C@H]1[C@H](C(C)(C)C)[C@@](C)(C(=O)O)N(C(=O)C2CCCCC2)[C@H]1c1ccccc1 (racemic) [Example I-211] |
| 1000 to 10000 | 1000 to 10000 | ++ (≥150 and <350) | – | < 100 | – | – | – | – | – | COc1ncc(C(F)(F)F)cc1CN[C@@H]1[C@@H](C(C)(C)C)[C@H](C(=O)O)N(C(=O)[C@@H]2CCCCO2)[C@@H]1c1ccccc1 [III-165] |
| 1000 to 10000 | 1000 to 10000 | +++ (≥350) | 100 to 200 | – | – | – | – | – | – | COc1ccc(C(C)(C)C)cc1CN[C@H]1[C@H](C(C)(C)C)[C@@H](C(=O)O)N(C(=O)c2ccccc2)[C@H]1c1ccccc1 [Example I-65] |
| > 10000 | > 10000 | + (<150) | – | < 100 | – | – | – | – | – | COc1ncc(C(F)(F)F)cc1N[C@H]1[C@H](C(C)(C)C)[C@@H](C(=O)O)N(C(=O)[C@H]2CCCCO2)[C@H]1c1cccnc1N(C)C [III-213] |
| 1000 to 10000 | 1000 to 10000 | ++ (≥150 and <350) | < 100 | – | – | – | – | – | – | COc1ccc(C(C)(C)C)cc1CN[C@@H]1[C@@H](C(C)(C)C)[C@H](C(=O)NS(C)(=O)=O)N(C(=O)C2CCCCC2)[C@@H]1c1ccccc1 [Example I-203] |
| 1000 to 10000 | < 1000 | – | – | > 200 | +++ (≥350) | – | – | – | – | COc1ccc(C2(C(F)(F)F)CC2)cc1CN[C@H]1[C@H](C(C)(C)C)[C@@H](C(=O)O)N(C(=O)C2CCCCC2)[C@H]1c1ccccc1F [II-353] |
| – | – | – | – | – | – | 1000 to 10000 | 1000 to 10000 | +++ (≥350) | > 200 | COc1ncc(C(F)(F)F)cc1CN[C@H]1[C@H](C(C)(C)C)[C@@H](C(=O)O)N(C(=O)[C@@H]2CCCO2)[C@H]1c1ccccc1C [Example I-262] |
| 1000 to 10000 | 1000 to 10000 | – | – | < 100 | ++ (≥150 and <350) | – | – | – | – | Cc1cc(C(F)(F)F)cc(N[C@@H]2[C@@H](C(C)(C)C)[C@H](C(=O)O)N(C(=O)OC(C)C)[C@@H]2c2cccnc2N(C)C)n1 (racemic) [III-93] |
| – | – | – | – | – | – | < 1000 | < 1000 | +++ (≥350) | > 200 | COc1ccc(-c2ccc(F)cc2C)cc1CN[C@H]1[C@H](C(C)(C)C)[C@@H](C(=O)O)N(C(=O)C2CCCCC2)[C@H]1c1ccccc1 [II-282] |
| – | – | – | – | – | – | 1000 to 10000 | 1000 to 10000 | +++ (≥350) | > 200 | COc1ccc(C2(C)CCC2)cc1CN[C@H]1[C@H](C(C)(C)C)[C@@H](C(=O)O)N(C(=O)[C@@H]2CCCO2)[C@H]1c1cccnc1N(C)C [Example I-283] |
| – | – | – | – | – | – | 1000 to 10000 | 1000 to 10000 | +++ (≥350) | > 200 | COc1ccc(C(F)(F)F)cc1CN[C@@H]1[C@@H](C(C)(C)C)[C@H](C(=O)O)N(C(=O)[C@@H]2CCCO[C@@H]2C)[C@@H]1c1ccccc1 (racemic) [II-34] |
| 1000 to 10000 | 1000 to 10000 | +++ (≥350) | 100 to 200 | – | – | – | – | – | – | COc1cc(C(C)(C)C)ccc1CN[C@H]1[C@H](C(C)(C)OC)[C@@H](C(=O)O)N(C(=O)C2CCCCC2)[C@H]1c1ccccc1 [Example I-62] |
| – | – | – | – | – | – | 1000 to 10000 | 1000 to 10000 | +++ (≥350) | < 100 | CC(C)(C)[C@H]1[C@H](NCc2cc(C(F)(F)F)cc(C(F)(F)F)c2)[C@H](c2ccccc2)N(C(=O)C2CCCCC2)[C@@H]1C(=O)O [II-108] |
| – | – | – | – | – | – | 1000 to 10000 | 1000 to 10000 | +++ (≥350) | > 200 | COc1ncc(C2CCC2)cc1CN[C@H]1[C@H](C(C)(C)C)[C@@H](C(=O)O)N(C(=O)[C@@H]2CCCCO2)[C@H]1c1cccc2c1OCC2 [Example I-301] |
| 1000 to 10000 | 1000 to 10000 | – | – | < 100 | ++ (≥150 and <350) | – | – | – | – | COc1ncc(C2CCC2)cc1CN[C@H]1[C@H](C(C)(C)C)[C@@H](C(=O)O)N(C(=O)c2ccc3c(c2)OCCO3)[C@H]1c1ccccc1 [II-475] |
| – | – | – | – | – | – | 1000 to 10000 | 1000 to 10000 | +++ (≥350) | > 200 | COc1ccc(C(F)(F)F)cc1CN[C@H]1[C@H](C(C)(C)C)[C@@H](C(=O)O)N(C(=O)OC(C)C)[C@H]1c1cccc(Cl)c1 [Example I-252] |
| – | – | – | – | – | – | 1000 to 10000 | 1000 to 10000 | ++ (≥150 and <350) | < 100 | CC(C)(C)[C@H]1[C@H](NC2CCOc3ccc(Cl)cc32)[C@H](c2ccccc2)N(C(=O)C2CCCCC2)[C@@H]1C(=O)O (some centres unmarked) [II-167] |
| < 1000 | < 1000 | – | – | 100 to 200 | +++ (≥350) | – | – | – | – | COc1ncc(-c2ccccc2F)cc1CN[C@H]1[C@H](C(C)(C)C)[C@@H](C(=O)O)N(C(=O)C2CCCCC2)[C@H]1c1ccccc1F [II-424] |
| 1000 to 10000 | 1000 to 10000 | – | – | 100 to 200 | +++ (≥350) | – | – | – | – | COc1ccc(OC(F)(F)F)cc1CN[C@H]1[C@H](C(C)(C)C)[C@@H](C(=O)O)N(C(=O)C2CCCCC2)[C@H]1c1cccnc1OC [II-524] |
| – | – | – | – | – | – | 1000 to 10000 | 1000 to 10000 | +++ (≥350) | 100 to 200 | COc1ccc(C(C)(C)C)cc1CN[C@H]1[C@H](C(C)(C)C)[C@@H](C(=O)O)N(C(=O)C(OC)C(C)(C)C)[C@H]1c1ccccc1 (some centres unmarked) [II-298] |
| 1000 to 10000 | 1000 to 10000 | +++ (≥350) | < 100 | – | – | – | – | – | – | COc1ccc(C(C)(C)C)cc1N[C@H]1[C@H](C(C)(C)C)[C@@H](C(=O)O)N(C(=O)C2CCCCC2)[C@H]1c1ccccc1 [Example I-82] |
| – | – | – | – | – | – | 1000 to 10000 | 1000 to 10000 | +++ (≥350) | < 100 | COc1ccc(Cl)cc1CN[C@H]1[C@H](C(C)(C)C)[C@@H](C(=O)O)N(C(=O)C2CCCCC2)[C@H]1c1cccnc1C [II-95] |
| < 1000 | < 1000 | +++ (≥350) | > 200 | – | – | – | – | – | – | COc1ccc(-c2ccccc2)cc1CN[C@H]1[C@H](C(C)(C)C)[C@@H](C(=O)O)N(C(=O)C2CCCCC2)[C@H]1c1ccccc1 [Example I-48] |
| 1000 to 10000 | < 1000 | +++ (≥350) | > 200 | – | – | – | – | – | – | COc1cc2ccccc2cc1CN[C@H]1[C@H](C(C)(C)C)[C@@H](C(=O)O)N(C(=O)C2CCCCC2)[C@H]1c1ccccc1 [Example I-42] |
| – | – | – | – | – | – | < 1000 | < 1000 | +++ (≥350) | < 100 | CC(C)(C)[C@@H]1[C@@H](NCc2cc(C(F)(F)F)cnc2Cl)[C@@H](c2ccccc2)N(C(=O)C2CCCCC2)[C@H]1C(=O)O (racemic) [II-15] |
| > 10000 | > 10000 | + (<150) | – | < 100 | – | – | – | – | – | CC(C)(C)[C@H]1[C@H](Nc2nc(Nc3ccccc3)ccc2C#N)[C@H](c2ccccc2)N(C(=O)C2CCCCC2)[C@@H]1C(=O)O [III-150] |
| 1000 to 10000 | 1000 to 10000 | +++ (≥350) | < 100 | – | – | – | – | – | – | COC(C)(C)[C@@H]1[C@@H](Nc2cc(C(F)(F)F)cc(C)n2)[C@@H](c2ccccc2)N(C(=O)C2CCCCC2)[C@H]1C(=O)O (racemic) [Example 5, rac-(2R,3R,4R,5R)-1-(cyclohexanecarbonyl)-3-(2-methoxypropan-2-yl)-4-{[6-methyl-4-(trifluoromethyl)pyridin-2-yl]amino}-5-phenylpyrrolidine-2-carboxylic acid] |
| – | – | – | – | – | – | 1000 to 10000 | < 1000 | +++ (≥350) | > 200 | COc1ccc(C(C)(C)C)cc1CN[C@H]1[C@H](C(C)(C)C)[C@@H](C(=O)O)N(C(=O)[C@@H]2CCCO2)[C@H]1c1ccccc1Br [Example I-294] |
| 1000 to 10000 | 1000 to 10000 | +++ (≥350) | > 200 | – | – | – | – | – | – | COc1ccc(C(C)(C)C)cc1CN[C@H]1[C@H](C(C)(C)OC)[C@@H](C(=O)O)N(C(=O)OC(C)C)[C@H]1c1cccnc1N(C)C [Example I-220] |

| Compound | EC50 [1] [nM] | EC50 [2] [nM] | Maximum % activity (with co-corrector) (with co-corrector (2 μM)) | Emax (without co-corrector) [%] | Emax [3] [%] | Maximum % activity (with co-corrector) [4] | EC50 [5] [nM] | EC50 [6] [nM] | Maximum % activity (with co-corrector) [7] | Emax (CSE-HRP, without co-corrector) [%] |
| --- | --- | --- | --- | --- | --- | --- | --- | --- | --- | --- |
| COc1ccc([Si](C)(C)C)cc1CN[C@H]1[C@H](C(C)(C)C)[C@@H](C(=O)O)N(C(=O)C2CCCCC2)[C@H]1c1ccccc1 [Example I-171] | < 1000 | < 1000 | – | – | – | – | – | – | – | – |
